Results: PubChem BioAssay AID743341 (Broad Institute, 2014)
Inconclusive results are not listed.

System: C2C12 myotubes + simvastatin, MHC imaging tube length, 48 h
Test: rescue of myotube length under simvastatin, confirmation, orthogonal assay for statin myotoxicity suppressor project, imaging, C2C12 myotubes, MHC immunostaining, dry powder (AID 743341)

| Structure (SMILES) | AC40 |
| --- | --- |
| C[C@@H]1CN([C@H](C)CO)C(=O)c2cccc(NC(=O)c3nc4ccccc4s3)c2O[C@@H]1CN(C)Cc1ccc(C(=O)Nc2ccccc2N)cc1 | 1.79 µM |
| C[C@H](CO)N1C[C@H](C)[C@H](CN(C)CC2CCCCC2)Oc2ccc(NC(=O)CCCCCC(=O)Nc3ccccc3N)cc2CC1=O | 13.2 µM |
| C[C@H](CO)N1C[C@H](C)[C@H](CN(C)Cc2ccc(C(=O)Nc3ccccc3N)cc2)Oc2ccc(NC(=O)Nc3ccc(F)cc3)cc2CC1=O | 0.655 µM |
| C[C@H]1CN([C@@H](C)CO)C(=O)Cc2cc(NC(=O)CCCCCC(=O)Nc3ccccc3N)ccc2O[C@H]1CN(C)Cc1ccc(C(F)(F)F)cc1 | 10.3 µM |
| C[C@@H]1CN([C@H](C)CO)C(=O)Cc2cc(NC(=O)C3CCCCC3)ccc2O[C@H]1CN(C)Cc1ccc(Cl)c(Cl)c1 | 7.84 µM |
| C[C@H](CO)N1C[C@H](C)[C@H](CN(C)Cc2ccc(C(=O)Nc3ccccc3N)cc2)Oc2ccc(NC(=O)Nc3cccc4ccccc34)cc2C1=O | 5.9 µM |
| C[C@@H]1CN([C@H](C)CO)C(=O)c2cc(NC(=O)Nc3cccc4ccccc34)ccc2O[C@@H]1CN(C)Cc1ccc(C(=O)Nc2ccccc2N)cc1 | 6.47 µM |
| C[C@@H]1CN([C@H](C)CO)C(=O)c2cccc(NC(=O)Nc3ccc4c(c3)OCO4)c2O[C@H]1CN(C)Cc1ccc(C(=O)Nc2ccccc2N)cc1 | 0.76 µM |
| C[C@H]1CN([C@@H](C)CO)C(=O)c2cc(C#Cc3ccncc3)cnc2O[C@@H]1CN(C)CC1CCCC1 | 8.86 µM |
| C[C@H](CO)N1C[C@H](C)[C@@H](CN(C)Cc2ccc(C(=O)Nc3ccccc3N)cc2)Oc2ccc(NC(=O)Cc3cn(C)c4ccccc34)cc2C1=O | 10.2 µM |
